The source of these data is ChEMBL document CHEMBL1240489, “Discovery of N-{1-[3-(3-oxo-2,3-dihydrobenzo[1,4]oxazin-4-yl)propyl]piperidin-4-yl}-2-phenylacetamide (Lu AE51090): an allosteric muscarinic M1 receptor agonist with unprecedented selectivity and procognitive potential” (J Med Chem, 2010).

The target of series [1] is T1, Muscarinic acetylcholine receptor M5 (Homo sapiens) (UniProt P08912).
T1 sequence (whole entry): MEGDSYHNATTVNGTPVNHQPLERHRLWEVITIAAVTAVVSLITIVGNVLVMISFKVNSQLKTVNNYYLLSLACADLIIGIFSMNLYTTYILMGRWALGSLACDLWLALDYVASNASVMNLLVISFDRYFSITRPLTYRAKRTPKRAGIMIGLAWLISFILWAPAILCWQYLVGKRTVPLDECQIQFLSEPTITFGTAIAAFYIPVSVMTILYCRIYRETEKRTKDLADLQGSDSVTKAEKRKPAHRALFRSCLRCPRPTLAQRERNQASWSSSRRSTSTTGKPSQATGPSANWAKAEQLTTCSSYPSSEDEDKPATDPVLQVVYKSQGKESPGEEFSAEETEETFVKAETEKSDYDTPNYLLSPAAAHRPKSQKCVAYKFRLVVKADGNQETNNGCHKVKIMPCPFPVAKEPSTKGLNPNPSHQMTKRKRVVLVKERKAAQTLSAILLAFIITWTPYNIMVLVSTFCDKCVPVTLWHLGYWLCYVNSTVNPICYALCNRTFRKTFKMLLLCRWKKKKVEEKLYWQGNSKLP
Briefly: Agonist activity at human muscarinic M5 receptor expressed in BHK-21 cells assessed as increase of acetylcholine-induced calcium flux at 10 uM by FLIPR assay relative to acetylcholine. The class given is functional, cell-based. For orientation: Calcium flux is commonly read through the fluorescence of an indicator in the cells.

For series [2], the target named is Neuropeptide Y receptor type 1 (Homo sapiens, UniProt P25929). Briefly: Binding affinity to human neuropeptide Y1 receptor by radioligand displacement assay.
Series [3] addresses Kappa-type opioid receptor (Homo sapiens, UniProt P41145). Briefly: Binding affinity to kappa opioid receptor by radioligand displacement assay. (In general: Displacement assays read how much labelled ligand stays bound in the presence of the test substance.)
Series [4] can be described thus: Protein binding in rat plasma at 0.1 uM after 60 mins by LC/MS-MS analysis. The note with it: read-out: PPB (converted). The series is classed as ADME, cell-free.
Series [5] in a line: Tmax in rat plasma at 2 mg/kg, po. The class given is ADME, organism-based. More on the design: dose 2 mg/kg, route oral.
Series [6] addresses Amine oxidase [flavin-containing] A (Homo sapiens, UniProt P21397). Description: Binding affinity to MAOA by radioligand displacement assay.
Series [7] is described as follows: Binding affinity to human delta2 opioid receptor by radioligand displacement assay.
Series [8] in a line: Binding affinity to L-type Ca2+ channel verapamil site by radioligand displacement assay.
Series [9] concerns the target Beta-1 adrenergic receptor (Homo sapiens, UniProt P08588). Description: Binding affinity to human adrenergic beta-1 receptor by radioligand displacement assay.
In series [10] the target is Sodium-dependent noradrenaline transporter (Homo sapiens, UniProt P23975). Description: Binding affinity to human NE transporter by radioligand displacement assay.
For another series, the target named is Adenosine receptor A3 (Homo sapiens, UniProt P0DMS8). Description: Binding affinity to human adenosine A3 receptor by radioligand displacement assay.
Series [11] addresses Ribosyldihydronicotinamide dehydrogenase [quinone] (Homo sapiens, UniProt P16083). Description: Binding affinity to ML2 (MT3) receptor by radioligand displacement assay.
In a further series the target is Substance-K receptor (Homo sapiens, UniProt P21452). Description: Binding affinity to human NK2 receptor by radioligand displacement assay.
Series [12] in a line: Volume of distribution at steady state in rat plasma at 1 mg/kg, iv and 2 mg/kg, po. The class given is ADME, organism-based. The note with it: read-out: Vdss.
The test system of another series is Hepatocyte. Briefly: Intrinsic clearance in rat hepatocytes at 1 uM after up to 60 mins by LC/MS-MS analysis. The note with it: 1 h. The class given is ADME, cell-based, Liver.
Series [13] has as its target T2, Muscarinic acetylcholine receptor M1 (Homo sapiens, UniProt P11229).
T2 sequence (P11229 whole entry): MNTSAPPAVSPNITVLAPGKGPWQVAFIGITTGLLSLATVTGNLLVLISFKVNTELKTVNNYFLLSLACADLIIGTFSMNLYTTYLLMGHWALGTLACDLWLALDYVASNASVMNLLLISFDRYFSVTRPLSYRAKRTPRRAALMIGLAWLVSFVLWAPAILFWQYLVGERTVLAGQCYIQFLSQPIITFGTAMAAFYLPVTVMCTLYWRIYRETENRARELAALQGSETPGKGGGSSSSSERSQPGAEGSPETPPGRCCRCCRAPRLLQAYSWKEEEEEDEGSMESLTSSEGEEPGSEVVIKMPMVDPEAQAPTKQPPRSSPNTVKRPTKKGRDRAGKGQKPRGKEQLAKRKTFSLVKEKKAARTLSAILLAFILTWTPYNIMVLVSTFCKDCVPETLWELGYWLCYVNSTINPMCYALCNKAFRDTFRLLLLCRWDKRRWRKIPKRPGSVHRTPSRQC

For series [14], the target named is Alpha-2A adrenergic receptor (Homo sapiens, UniProt P08913). Briefly: Binding affinity to human adrenergic alpha2A receptor by radioligand displacement assay.
The target of series [15] is T3, Muscarinic acetylcholine receptor M2 (Homo sapiens, UniProt P08172).
T3 sequence (P08172 whole entry): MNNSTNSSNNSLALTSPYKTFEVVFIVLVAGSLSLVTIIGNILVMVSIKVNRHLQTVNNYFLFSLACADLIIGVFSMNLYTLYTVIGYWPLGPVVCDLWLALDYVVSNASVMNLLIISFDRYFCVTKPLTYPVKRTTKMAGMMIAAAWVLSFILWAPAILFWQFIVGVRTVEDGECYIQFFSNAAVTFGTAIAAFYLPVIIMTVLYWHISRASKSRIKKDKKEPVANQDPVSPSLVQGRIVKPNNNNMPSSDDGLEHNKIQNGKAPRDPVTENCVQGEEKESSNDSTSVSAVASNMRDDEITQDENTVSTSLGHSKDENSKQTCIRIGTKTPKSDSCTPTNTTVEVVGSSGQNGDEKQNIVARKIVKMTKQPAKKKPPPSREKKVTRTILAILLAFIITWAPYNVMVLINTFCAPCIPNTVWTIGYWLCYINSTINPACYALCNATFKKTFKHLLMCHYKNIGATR
Description: Displacement of [3H]-AFDX-384 from human muscarinic M2 receptor expressed in CHO-K1 cells. The series is classed as cell-based.

Series [16] has as its target Alpha-1A adrenergic receptor (Homo sapiens, UniProt P35348). Briefly: Binding affinity to human adrenergic alpha1A receptor by radioligand displacement assay.
Series [17] can be described thus: Binding affinity to Ca2+ channel by radioligand displacement assay.

Chain of Alpha-2A adrenergic receptor (P08913 whole entry): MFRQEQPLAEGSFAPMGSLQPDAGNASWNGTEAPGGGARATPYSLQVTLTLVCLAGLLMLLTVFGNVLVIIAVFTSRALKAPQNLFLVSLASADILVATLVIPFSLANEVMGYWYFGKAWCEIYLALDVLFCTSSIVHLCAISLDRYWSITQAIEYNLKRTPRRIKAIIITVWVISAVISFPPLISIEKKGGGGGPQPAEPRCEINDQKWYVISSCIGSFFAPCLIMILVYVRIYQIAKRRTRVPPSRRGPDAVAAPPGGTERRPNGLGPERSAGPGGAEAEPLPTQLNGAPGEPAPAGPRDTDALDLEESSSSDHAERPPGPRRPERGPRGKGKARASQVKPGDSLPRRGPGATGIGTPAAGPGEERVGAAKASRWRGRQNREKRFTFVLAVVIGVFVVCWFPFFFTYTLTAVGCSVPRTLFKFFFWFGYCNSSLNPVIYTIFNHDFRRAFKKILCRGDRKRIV
Chain of Adenosine receptor A3 (P0DMS8 whole entry): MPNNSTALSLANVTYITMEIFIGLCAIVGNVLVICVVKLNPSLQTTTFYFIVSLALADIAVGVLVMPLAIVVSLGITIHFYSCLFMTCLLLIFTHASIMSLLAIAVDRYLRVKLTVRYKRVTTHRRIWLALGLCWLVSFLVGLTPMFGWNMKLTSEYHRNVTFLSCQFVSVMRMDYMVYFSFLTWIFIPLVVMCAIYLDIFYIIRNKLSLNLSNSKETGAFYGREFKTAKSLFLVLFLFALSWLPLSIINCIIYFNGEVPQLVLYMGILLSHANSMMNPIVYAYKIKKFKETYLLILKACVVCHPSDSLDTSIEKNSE
Chain of Ribosyldihydronicotinamide dehydrogenase [quinone] (P16083 whole entry): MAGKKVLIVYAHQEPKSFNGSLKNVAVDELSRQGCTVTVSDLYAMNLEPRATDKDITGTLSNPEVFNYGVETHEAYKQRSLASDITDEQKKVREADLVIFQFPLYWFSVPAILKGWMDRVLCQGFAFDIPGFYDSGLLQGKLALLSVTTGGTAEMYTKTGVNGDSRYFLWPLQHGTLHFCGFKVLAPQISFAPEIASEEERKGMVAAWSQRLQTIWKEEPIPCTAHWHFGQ
Chain of Alpha-1A adrenergic receptor (P35348 whole entry): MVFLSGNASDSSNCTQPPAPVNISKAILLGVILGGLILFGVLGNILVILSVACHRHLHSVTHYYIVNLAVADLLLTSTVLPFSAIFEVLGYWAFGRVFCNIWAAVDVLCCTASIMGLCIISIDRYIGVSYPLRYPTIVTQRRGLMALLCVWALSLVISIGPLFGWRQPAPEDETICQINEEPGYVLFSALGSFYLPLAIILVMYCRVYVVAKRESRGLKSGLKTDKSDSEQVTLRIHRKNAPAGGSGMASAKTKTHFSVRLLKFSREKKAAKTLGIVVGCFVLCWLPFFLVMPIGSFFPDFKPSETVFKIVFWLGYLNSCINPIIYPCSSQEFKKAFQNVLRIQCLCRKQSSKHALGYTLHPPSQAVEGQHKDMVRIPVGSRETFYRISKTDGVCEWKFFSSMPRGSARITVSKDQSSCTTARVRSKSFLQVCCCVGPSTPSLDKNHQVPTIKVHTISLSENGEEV
Chain of Neuropeptide Y receptor type 1 (P25929 whole entry): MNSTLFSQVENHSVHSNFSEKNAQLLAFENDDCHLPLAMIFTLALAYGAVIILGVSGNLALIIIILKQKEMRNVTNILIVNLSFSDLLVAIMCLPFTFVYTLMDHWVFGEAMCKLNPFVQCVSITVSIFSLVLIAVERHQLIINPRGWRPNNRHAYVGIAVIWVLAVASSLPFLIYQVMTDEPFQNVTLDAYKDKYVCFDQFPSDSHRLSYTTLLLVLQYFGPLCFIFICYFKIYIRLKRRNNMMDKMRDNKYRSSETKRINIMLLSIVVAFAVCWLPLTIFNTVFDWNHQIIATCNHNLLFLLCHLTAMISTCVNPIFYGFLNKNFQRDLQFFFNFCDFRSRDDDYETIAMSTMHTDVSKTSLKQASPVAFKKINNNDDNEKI
Chain of Kappa-type opioid receptor (P41145 whole entry): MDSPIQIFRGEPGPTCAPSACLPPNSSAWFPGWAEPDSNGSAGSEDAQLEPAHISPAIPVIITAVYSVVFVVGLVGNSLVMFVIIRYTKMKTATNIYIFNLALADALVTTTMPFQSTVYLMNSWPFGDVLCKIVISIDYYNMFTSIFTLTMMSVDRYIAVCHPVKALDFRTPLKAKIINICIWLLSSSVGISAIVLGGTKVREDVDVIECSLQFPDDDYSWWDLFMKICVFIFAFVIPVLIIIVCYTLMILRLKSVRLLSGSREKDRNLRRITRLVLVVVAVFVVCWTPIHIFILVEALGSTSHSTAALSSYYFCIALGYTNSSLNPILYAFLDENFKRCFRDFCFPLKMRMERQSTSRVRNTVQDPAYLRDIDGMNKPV
Chain of Beta-1 adrenergic receptor (P08588 whole entry): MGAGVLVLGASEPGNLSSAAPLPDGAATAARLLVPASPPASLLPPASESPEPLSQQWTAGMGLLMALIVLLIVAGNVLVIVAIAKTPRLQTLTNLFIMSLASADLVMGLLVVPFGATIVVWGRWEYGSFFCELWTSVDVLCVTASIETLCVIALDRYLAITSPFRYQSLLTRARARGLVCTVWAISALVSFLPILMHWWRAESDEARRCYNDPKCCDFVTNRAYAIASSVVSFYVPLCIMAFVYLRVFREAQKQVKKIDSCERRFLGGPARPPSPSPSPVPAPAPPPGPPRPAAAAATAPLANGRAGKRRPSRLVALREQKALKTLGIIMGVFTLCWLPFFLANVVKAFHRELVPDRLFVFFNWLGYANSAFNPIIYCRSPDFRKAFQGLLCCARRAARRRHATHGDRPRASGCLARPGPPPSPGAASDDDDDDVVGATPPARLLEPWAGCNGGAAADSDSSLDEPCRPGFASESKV
Chain of Amine oxidase [flavin-containing] A (P21397 whole entry): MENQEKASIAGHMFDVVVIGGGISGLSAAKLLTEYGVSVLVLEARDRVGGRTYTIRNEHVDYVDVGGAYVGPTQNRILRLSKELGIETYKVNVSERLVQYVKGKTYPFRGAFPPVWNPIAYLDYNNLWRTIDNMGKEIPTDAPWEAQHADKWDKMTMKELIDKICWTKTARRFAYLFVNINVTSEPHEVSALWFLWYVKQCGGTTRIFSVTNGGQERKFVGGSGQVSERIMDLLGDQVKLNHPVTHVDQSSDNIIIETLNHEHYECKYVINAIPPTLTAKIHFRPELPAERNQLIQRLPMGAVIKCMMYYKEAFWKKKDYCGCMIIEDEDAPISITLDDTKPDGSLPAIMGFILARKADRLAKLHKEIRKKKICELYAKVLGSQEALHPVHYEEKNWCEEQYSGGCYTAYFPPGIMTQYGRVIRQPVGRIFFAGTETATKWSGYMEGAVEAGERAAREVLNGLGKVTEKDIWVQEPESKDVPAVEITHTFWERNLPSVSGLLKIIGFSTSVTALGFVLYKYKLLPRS
Chain of Sodium-dependent noradrenaline transporter (P23975 whole entry): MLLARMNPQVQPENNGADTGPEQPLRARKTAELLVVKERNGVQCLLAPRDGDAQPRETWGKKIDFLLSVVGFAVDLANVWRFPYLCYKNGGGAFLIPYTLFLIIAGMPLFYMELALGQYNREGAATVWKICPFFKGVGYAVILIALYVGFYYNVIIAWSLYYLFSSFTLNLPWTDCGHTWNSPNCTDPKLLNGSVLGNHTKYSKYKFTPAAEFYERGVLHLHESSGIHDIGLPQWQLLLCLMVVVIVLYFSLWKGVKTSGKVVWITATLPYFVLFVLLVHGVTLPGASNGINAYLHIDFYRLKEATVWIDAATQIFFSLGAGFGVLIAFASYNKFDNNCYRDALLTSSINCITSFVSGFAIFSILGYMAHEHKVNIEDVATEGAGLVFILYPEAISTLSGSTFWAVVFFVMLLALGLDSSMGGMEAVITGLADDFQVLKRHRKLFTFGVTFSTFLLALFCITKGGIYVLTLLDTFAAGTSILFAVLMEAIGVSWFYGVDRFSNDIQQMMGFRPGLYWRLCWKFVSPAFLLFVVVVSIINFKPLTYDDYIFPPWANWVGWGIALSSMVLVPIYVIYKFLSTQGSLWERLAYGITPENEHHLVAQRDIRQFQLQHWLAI
Chain of Substance-K receptor (P21452 whole entry): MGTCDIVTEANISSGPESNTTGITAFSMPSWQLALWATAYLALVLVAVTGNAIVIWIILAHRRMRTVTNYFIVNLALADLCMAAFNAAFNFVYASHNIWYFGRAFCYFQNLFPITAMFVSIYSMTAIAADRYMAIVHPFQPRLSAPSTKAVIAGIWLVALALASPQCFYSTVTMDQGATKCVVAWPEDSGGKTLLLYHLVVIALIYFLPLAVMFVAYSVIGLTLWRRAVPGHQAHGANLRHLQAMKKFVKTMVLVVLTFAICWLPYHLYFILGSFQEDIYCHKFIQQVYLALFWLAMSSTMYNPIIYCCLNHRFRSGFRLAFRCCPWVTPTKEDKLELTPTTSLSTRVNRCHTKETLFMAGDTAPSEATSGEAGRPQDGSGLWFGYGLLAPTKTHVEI

What is called Emax is the maximal effect, on the per cent scale that the assay sets. One may read the Ki as the dissociation constant of the complex between target and ligand, obtained from inhibition or displacement. As usually defined, the Tmax is the time at which the peak concentration occurs. What is called EC50 is the midpoint of the concentration-response curve. Consider `O=C(Cc1ccccc1)NC1CCN(CCCN2C(=O)COc3ccccc32)CC1`, for which the Emax in series [1] turned out to be 1%. The Ki in series [2], in series [3], in [6], in [7], in [8] and in [9] was at least 1000 nM in each case. Also, the Ki was at least 1000 nM in [10]; at least 1000 nM at Adenosine receptor A3; at least 1000 nM in series [11]; at least 1000 nM at Substance-K receptor; at least 1000 nM in [14]; 2200 nM in series [15]. Besides, the results for the Ki in [16] and in series [17] were 260 nM and at least 1000 nM, respectively. Besides, in [4], the fraction unbound at 1 h, 0.1 µM was 0.48. Also, in [5], the Tmax was found to be 48 min. The Vd in series [12] stood at 4.8 L/kg. The same molecule showed a CL with Hepatocyte of 100 mL/min. The same molecule registered an EC50 in [13] of 61 nM.
